This is an account of results in the supplement of paper PMC10307832.

Test in all cases: relative viability (nuclei count vs DMSO), 5 days (fraction); higher = more cells survive
Compound in the test “Mirin + Olaparib”: N=C1NC(=O)/C(=C/c2ccc(O)cc2)S1 [Mirin] + O=C(c1cc(Cc2n[nH]c(=O)c3ccccc23)ccc1F)N1CCN(C(=O)C2CC2)CC1 [Olaparib] (partner 8 µM)
In a few lines:
(§1)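 Lung cancer cell lines in 1536-well plates got either a single drug or a fixed anchor-drug dose together with five library-drug doses (not always all listed) in √10 steps, by pin tool, on the day after seeding. Nuclei were counted after 5 days, and relative viability is the treated-to-vehicle ratio of nuclei counts. Values are medians of duplicate plates.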

Compound in test [1]: CCC1=CN=CN=C1N2CCN(CC2)CC3=NC4=C(N3)C=C(C=C4)C(F)(F)F + CS(=O)(=O)CCNCc1ccc(-c2ccc3ncnc(Nc4ccc(OCc5cccc(F)c5)c(Cl)c4)c3c2)o1 [Lapatinib] (partner 2 µM)
Put shortly: as §1

Compound in the test “Mirin + Trametinib”: N=C1NC(=O)/C(=C/c2ccc(O)cc2)S1 [Mirin] + CC(=O)Nc1cccc(-n2c(=O)n(C3CC3)c(=O)c3c(Nc4ccc(I)cc4F)n(C)c(=O)c(C)c32)c1 [Trametinib] (partner 0.02 µM)
In a few lines: as §1

Compound in test [2]: CCC1=CN=CN=C1N2CCN(CC2)CC3=NC4=C(N3)C=C(C=C4)C(F)(F)F + NC(=O)Nc1cc(-c2cccc(F)c2)sc1C(=O)N[C@H]1CCCNC1 [AZD7762] (partner 0.2 µM)
Put shortly: as §1

For the cell line Calu-6, the relative viability with Mirin + Olaparib (first compound 0.25 µM) amounted to 0.554; with Mirin + Olaparib (first compound 0.7906 µM) it was 0.673; with Mirin + Olaparib (first compound 2.5 µM), 0.618; in the test with Mirin + Olaparib (first compound 7.906 µM), 0.397; with Mirin + Olaparib (first compound 25 µM), 0.482; in test [1] (first compound 0.04 µM) it was 1.1. Moreover, the relative viability in test [1] (first compound 0.1265 µM) was 1.11; in test [1] (first compound 0.4 µM), 1.05; in test [1] (first compound 1.265 µM), 0.988; in test [1] (first compound 4 µM) it was 1.03.

As for ChaGo-K-1, the relative viability was 0.415 with Mirin + Olaparib (first compound 0.25 µM); 0.363 with Mirin + Olaparib (first compound 0.7906 µM); 0.43 with Mirin + Olaparib (first compound 2.5 µM); 0.381 in the test with Mirin + Olaparib (first compound 7.906 µM); 0.253 with Mirin + Olaparib (first compound 25 µM); 0.833 with Mirin + Trametinib (first compound 0.25 µM). Moreover, the relative viability was 0.836 with Mirin + Trametinib (first compound 0.7906 µM); 0.94 with Mirin + Trametinib (first compound 2.5 µM); 0.756 with Mirin + Trametinib (first compound 7.906 µM); 0.677 with Mirin + Trametinib (first compound 25 µM); 0.835 in test [2] (first compound 0.04 µM); 0.836 in test [2] (first compound 0.1265 µM). Further, the relative viability was found to be 0.881 in test [2] (first compound 0.4 µM), 0.816 in test [2] (first compound 1.265 µM) and 0.961 in test [2] (first compound 4 µM).

Take EBC-1: the relative viability with Mirin + Olaparib (first compound 0.25 µM) amounted to 0.707; in the test with Mirin + Olaparib (first compound 0.7906 µM) it was 0.783; with Mirin + Olaparib (first compound 2.5 µM), 0.693; with Mirin + Olaparib (first compound 7.906 µM), 0.561; with Mirin + Olaparib (first compound 25 µM) it was 0.471; in test [1] (first compound 0.04 µM), 0.224. In addition, the relative viability in test [1] (first compound 0.1265 µM) is 0.3; in test [1] (first compound 0.4 µM), 1.47; in test [1] (first compound 1.265 µM), 1.52; in test [1] (first compound 4 µM), 1.31.

Regarding EKVX, the relative viability with Mirin + Olaparib (first compound 0.25 µM) amounted to 0.857; in the test with Mirin + Olaparib (first compound 0.7906 µM) it was 0.916; with Mirin + Olaparib (first compound 2.5 µM), 0.839; in the test with Mirin + Olaparib (first compound 7.906 µM) it was 0.758; with Mirin + Olaparib (first compound 25 µM), 0.993; with Mirin + Trametinib (first compound 0.25 µM), 0.373. For the same cell line, the relative viability with Mirin + Trametinib (first compound 0.7906 µM) worked out at 0.246; with Mirin + Trametinib (first compound 2.5 µM), 0.382; with Mirin + Trametinib (first compound 7.906 µM), 0.35; in the test with Mirin + Trametinib (first compound 25 µM), 0.376; in test [2] (first compound 0.04 µM), 0.724; in test [2] (first compound 0.1265 µM) it was 0.712. Moreover, the relative viability in test [2] (first compound 0.4 µM) stood at 0.756; in test [2] (first compound 1.265 µM), 0.646; in test [2] (first compound 4 µM) it was 0.777; in test [1] (first compound 0.04 µM) it was 0.212; in test [1] (first compound 0.1265 µM), 0.198; in test [1] (first compound 0.4 µM), 0.227. The relative viability in test [1] (first compound 1.265 µM) is 0.174; in test [1] (first compound 4 µM) it was 0.216.

Take EMC-BAC-2: the relative viability with Mirin + Olaparib (first compound 0.25 µM) is 0.505; with Mirin + Olaparib (first compound 0.7906 µM), 0.508; in the test with Mirin + Olaparib (first compound 2.5 µM), 0.48; with Mirin + Olaparib (first compound 7.906 µM) it was 0.382; with Mirin + Olaparib (first compound 25 µM), 0.429; with Mirin + Trametinib (first compound 0.25 µM), 0.934. Moreover, the relative viability with Mirin + Trametinib (first compound 0.7906 µM) turned out to be 0.889; with Mirin + Trametinib (first compound 2.5 µM) it was 0.875; with Mirin + Trametinib (first compound 7.906 µM), 0.761; with Mirin + Trametinib (first compound 25 µM), 0.957; in test [2] (first compound 0.04 µM), 1.1; in test [2] (first compound 0.1265 µM), 1.05. Besides, the relative viability in test [2] (first compound 0.4 µM) was 1.12; in test [2] (first compound 1.265 µM), 1.05; in test [2] (first compound 4 µM) it was 1.21; in test [1] (first compound 0.04 µM), 0.889; in test [1] (first compound 0.1265 µM) it was 0.864; in test [1] (first compound 0.4 µM), 0.86. For the same cell line, the relative viability was determined as 0.743 in test [1] (first compound 1.265 µM) and 0.982 in test [1] (first compound 4 µM).

As for EPLC-272H, the relative viability with Mirin + Olaparib (first compound 0.25 µM) came to 0.867; with Mirin + Olaparib (first compound 0.7906 µM), 0.682; in the test with Mirin + Olaparib (first compound 2.5 µM), 0.812; in the test with Mirin + Olaparib (first compound 7.906 µM), 0.661; in the test with Mirin + Olaparib (first compound 25 µM), 0.228; in the test with Mirin + Trametinib (first compound 0.25 µM), 0.308. The relative viability was 0.281 with Mirin + Trametinib (first compound 2.5 µM); 0.3 with Mirin + Trametinib (first compound 7.906 µM); 0.317 with Mirin + Trametinib (first compound 25 µM); 0.172 in test [2] (first compound 0.04 µM); 0.209 in test [2] (first compound 0.1265 µM); 0.207 in test [2] (first compound 0.4 µM). The relative viability in test [2] (first compound 1.265 µM) stood at 0.245; in test [2] (first compound 4 µM), 0.262; in test [1] (first compound 0.04 µM), 0.854; in test [1] (first compound 0.1265 µM) it was 0.807; in test [1] (first compound 0.4 µM) it was 0.853; in test [1] (first compound 1.265 µM), 0.913. For the same cell line, the relative viability in test [1] (first compound 4 µM) turned out to be 0.975.

For H3255, the relative viability in the test with Mirin + Olaparib (first compound 0.25 µM) was found to be 0.55; in the test with Mirin + Olaparib (first compound 0.7906 µM), 0.539; with Mirin + Olaparib (first compound 2.5 µM) it was 0.541; with Mirin + Olaparib (first compound 7.906 µM), 0.537; in the test with Mirin + Olaparib (first compound 25 µM), 0.547; with Mirin + Trametinib (first compound 0.25 µM), 0.604. Moreover, the relative viability in the test with Mirin + Trametinib (first compound 0.7906 µM) is 0.752; with Mirin + Trametinib (first compound 2.5 µM), 0.557; with Mirin + Trametinib (first compound 7.906 µM), 0.412; in the test with Mirin + Trametinib (first compound 25 µM), 0.566; in test [2] (first compound 0.04 µM), 0.86; in test [2] (first compound 0.1265 µM), 0.852. The relative viability in test [2] (first compound 0.4 µM) stood at 0.824; in test [2] (first compound 1.265 µM) it was 0.931; in test [2] (first compound 4 µM), 0.874; in test [1] (first compound 0.04 µM), 0.241; in test [1] (first compound 0.1265 µM), 0.238; in test [1] (first compound 0.4 µM), 0.218. For the same cell line, the relative viability stood at 0.234 in test [1] (first compound 1.265 µM) and 0.246 in test [1] (first compound 4 µM).

As for HARA, the relative viability amounted to 1.08 with Mirin + Olaparib (first compound 0.25 µM); 0.735 with Mirin + Olaparib (first compound 2.5 µM); 0.874 with Mirin + Olaparib (first compound 7.906 µM); 0.495 with Mirin + Olaparib (first compound 25 µM); 0.886 in the test with Mirin + Trametinib (first compound 0.25 µM); 0.795 in the test with Mirin + Trametinib (first compound 2.5 µM). For the same cell line, the relative viability amounted to 0.674 with Mirin + Trametinib (first compound 7.906 µM); 0.523 with Mirin + Trametinib (first compound 25 µM); 0.484 in test [2] (first compound 0.04 µM); 0.263 in test [2] (first compound 0.1265 µM); 0.339 in test [2] (first compound 0.4 µM); 0.292 in test [2] (first compound 1.265 µM). In addition, the relative viability in test [2] (first compound 4 µM) came to 0.436; in test [1] (first compound 0.04 µM) it was 0.894; in test [1] (first compound 0.1265 µM) it was 0.762; in test [1] (first compound 0.4 µM), 0.687; in test [1] (first compound 1.265 µM) it was 0.602; in test [1] (first compound 4 µM), 0.866.
